In patent US20250333424A1, “ANTIVIRAL COMPOUNDS” (Gilead Sciences, Inc., priority 2024, published 2025):

system: monocytic THP1 cells infected with HIV VSV-G pseudotyped GFP-NEF reporter virus; assay: cells; format: cell-based; settings: Human immunodeficiency virus 1, THP-1, 24 h

SMILES	EC50 [nM]
Cc1cc(/C=C/C#N)cc(C)c1Oc1nc(NC23CC(C#N)(C2)C3)nc2nn(C3CCOC3)cc12 [Example 233, (R,E)-3-((4-(4-(2-cyanovinyl)-2,6-dimethylphenoxy)-2-(tetrahydrofuran-3-yl)-2H-pyrazolo[3,4-d]pyrimidin-6-yl)amino)bicyclo[1.1.1]pentane-1-carbonitrile]	158
Cc1cc(/C=C/C#N)cc(C)c1Oc1nc(NC23CC(C#N)(C2)C3)nc2nc(-c3ccno3)[nH]c12 [Compound 73, (E)-3-((6-(4-(2-cyanovinyl)-2,6-dimethylphenoxy)-8-(isoxazol-5-yl)-7H-purin-2-yl)amino)bicyclo[1.1.1]pentane-1-carbonitrile]	285
Cc1cc(/C=C/C#N)cc(C)c1Oc1nc(NC23CC(C#N)(C2)C3)nc2c1C(C)N(CCc1cnn(C)c1)C2=O (stereo not shown) [Example 211, (E)-3-((4-(4-(2-cyanovinyl)-2,6-dimethylphenoxy)-5-methyl-6-(2-(1-methyl-1H-pyrazol-4-yl)ethyl)-7-oxo-6,7-dihydro-5H-pyrrolo[3,4-d]pyrimidin-2-yl)amino)bicyclo[1.1.1]pentane-1-carbonitrile]	54.5
Cc1cc(/C=C/C#N)cc(C)c1Oc1nc(NC23CC(C#N)(C2)C3)nc2nn(C)c(C)c12 [Compound 86, (E)-3-((4-(4-(2-cyanovinyl)-2,6-dimethylphenoxy)-2,3-dimethyl-2H-pyrazolo[3,4-d]pyrimidin-6-yl)amino)bicyclo[1.1.1]pentane-1-carbonitrile]	18.3
Cc1cc(/C=C/C#N)cc(C)c1Oc1nc(NC23CC(C#N)(C2)C3)nc2c1C(C)N(CCC(F)(F)F)C2=O (stereo not shown) [Example 207, (E)-3-((4-(4-(2-cyanovinyl)-2,6-dimethylphenoxy)-5-methyl-7-oxo-6-(3,3,3-trifluoropropyl)-6,7-dihydro-5H-pyrrolo[3,4-d]pyrimidin-2-yl)amino)bicyclo[1.1.1]pentane-1-carbonitrile]	70.3
Cc1cc(/C=C/C#N)cc(C)c1Oc1nc(NC23CC(C#N)(C2)C3)nc2c1C(O)(C(F)F)NC2=O (stereo not shown) [Example 229, (E)-3-((4-(4-(2-cyanovinyl)-2,6-dimethylphenoxy)-5-(difluoromethyl)-5-hydroxy-7-oxo-6,7-dihydro-5H-pyrrolo[3,4-d]pyrimidin-2-yl)amino)bicyclo[1.1.1]pentane-1-carbonitrile]	123
Cc1cc(/C=C/C#N)cc(C)c1Oc1nc(NC23CC(C#N)(C2)C3)nc2c1[C@H](C)N(c1cn[nH]c1)C2=O [Example 228, (S,E)-3-((4-(4-(2-cyanovinyl)-2,6-dimethylphenoxy)-5-methyl-7-oxo-6-(1H-pyrazol-4-yl)-6,7-dihydro-5H-pyrrolo[3,4-d]pyrimidin-2-yl)amino)bicyclo[1.1.1]pentane-1-carbonitrile]	72
Cc1cc(/C=C/C#N)cc(C)c1Oc1nc(NC23CC(C#N)(C2)C3)nc2nc(-c3cnoc3)[nH]c12 [Compound 71, (E)-3-((6-(4-(2-cyanovinyl)-2,6-dimethylphenoxy)-8-(isoxazol-4-yl)-7H-purin-2-yl)amino)bicyclo[1.1.1]pentane-1-carbonitrile]	274
CCn1cc2c(Oc3c(C)cc(/C=C/C#N)cc3C)nc(NC34CC(C#N)(C3)C4)nc2n1 [Compound 143, 3-[[4-[4-[(E)-2-cyanovinyl]-2,6-dimethyl-phenoxy]-2-ethyl-pyrazolo[3,4-d]pyrimidin-6-yl]amino]bicyclo[1.1.1]pentane-1-carbonitrile]	58.5
Cc1cc(/C=C/C#N)cc(C)c1Oc1nc(NC23CC(C#N)(C2)C3)nc2c1[C@]1(C)O[C@@H](C)CN1C2=O (single isomer, unassigned) [Example 248]	121
CO[C@H]1COC2c3c(Oc4c(C)cc(/C=C/C#N)cc4C)nc(NC45CC(C#N)(C4)C5)nc3C(=O)N2C1 (single isomer, unassigned) [Example 252]	77.1
Cc1cc(/C=C/C#N)cc(C)c1Oc1nc(NC23CC(C#N)(C2)C3)nc2nn(CC#N)cc12 [Compound 304, (E)-3-((2-(cyanomethyl)-4-(4-(2-cyanovinyl)-2,6-dimethylphenoxy)-2H-pyrazolo[3,4-d]pyrimidin-6-yl)amino)bicyclo[1.1.1]pentane-1-carbonitrile]	107
Cc1cc(/C=C/C#N)cc(C)c1Oc1nc(NC23CC(C#N)(C2)C3)nc2c1[C@]1(C)O[C@@H]3CC[C@@H]3N1C2=O (single isomer, unassigned) [Compound 284]	34.9
Cc1cc(/C=C/C#N)cc(C)c1Oc1nc(NC23CC(C#N)(C2)C3)nc2nc(Nc3ccn(C)n3)[nH]c12 [Compound 48, (E)-3-((6-(4-(2-cyanovinyl)-2,6-dimethylphenoxy)-8-((1-methyl-1H-pyrazol-3-yl)amino)-7H-purin-2-yl)amino)bicyclo[1.1.1]pentane-1-carbonitrile]	151
Cc1cc(/C=C/C#N)cc(C)c1Oc1nc(NC23CC(C#N)(C2)C3)nc2nc(C(C)O)n(C(F)F)c12 (stereo not shown) [Compound 179, (E)-3-((6-(4-(2-cyanovinyl)-2,6-dimethylphenoxy)-7-(difluoromethyl)-8-(1-hydroxyethyl)-7H-purin-2-yl)amino)bicyclo[1.1.1]pentane-1-carbonitrile]	18.1
Cc1cc(/C=C/C#N)cc(C)c1Oc1nc(NC23CC(C#N)(C2)C3)nc2nn3c(c12)CCC3 [Example 257, (E)-3-((4-(4-(2-cyanovinyl)-2,6-dimethylphenoxy)-6,7-dihydro-5H-pyrrolo[1′,2′:1,5]pyrazolo[3,4-d]pyrimidin-2-yl)amino)bicyclo[1.1.1]pentane-1-carbonitrile]	22.8
Cc1cc(/C=C/C#N)cc(C)c1Oc1nc(NC23CC(C#N)(C2)C3)nc2c1C(C)N(C1COC1)C2=O (stereo not shown) [Example 208, (E)-3-((4-(4-(2-cyanovinyl)-2,6-dimethylphenoxy)-5-methyl-6-(oxetan-3-yl)-7-oxo-6,7-dihydro-5H-pyrrolo[3,4-d]pyrimidin-2-yl)amino)bicyclo[1.1.1]pentane-1-carbonitrile]	28.8
Cc1cc(/C=C/C#N)cc(C)c1Oc1nc(NC23CC(C#N)(C2)C3)nc2nc3n(c12)CC(F)(F)CO3 [Compound 189, (E)-3-((4-(4-(2-cyanovinyl)-2,6-dimethylphenoxy)-7,7-difluoro-7,8-dihydro-6H-[1,3]oxazino[2,3-f]purin-2-yl)amino)bicyclo[1.1.1]pentane-1-carbonitrile]	109
Cc1cc(/C=C/C#N)cc(C)c1Oc1nc(NC23CC(C#N)(C2)C3)nc2c1[C@@H](C)NC2=O [Compound 137, 3-[[(5R)-4-[4-[(E)-2-cyanovinyl]-2,6-dimethyl-phenoxy]-5-methyl-7-oxo-5,6-dihydropyrrolo[3,4-d]pyrimidin-2-yl]amino]bicyclo[1.1.1]pentane-1-carbonitrile]	6.9
Cc1cc(/C=C/C#N)cc(C)c1Oc1nc(NC23CC(C#N)(C2)C3)nc2nnn(C(F)F)c12 (single isomer, unassigned) [Compound 11, (E)-3-((7-(4-(2-cyanovinyl)-2,6-dimethylphenoxy)-1-(difluoromethyl)-1H-[1,2,3]triazolo[4,5-d]pyrimidin-5-yl)amino)bicyclo[1.1.1]pentane-1-carbonitrile]	27.7
Cc1cc(/C=C/C#N)cc(C)c1Oc1nc(NC23CC(C#N)(C2)C3)nc2c1C(C)N(c1cnn(C(C)C)c1)C2=O (stereo not shown) [Example 226, (E)-3-((4-(4-(2-cyanovinyl)-2,6-dimethylphenoxy)-6-(1-isopropyl-1H-pyrazol-4-yl)-5-methyl-7-oxo-6,7-dihydro-5H-pyrrolo[3,4-d]pyrimidin-2-yl)amino)bicyclo[1.1.1]pentane-1-carbonitrile]	84.4
Cc1cc(/C=C/C#N)cc(C)c1Oc1nc(NC23CC(C#N)(C2)C3)nc2c1C1(C)OC[C@H](C)CN1C2=O (single isomer, unassigned) [Example 245]	22.3
Cc1cc(/C=C/C#N)cc(C)c1Oc1nc(NC23CC(C#N)(C2)C3)nc2c1C(C)NC2=O (stereo not shown) [Compound 136, (E)-3-((4-(4-(2-cyanovinyl)-2,6-dimethylphenoxy)-5-methyl-7-oxo-6,7-dihydro-5H-pyrrolo[3,4-d]pyrimidin-2-yl)amino)bicyclo[1.1.1]pentane-1-carbonitrile]	15
Cc1cc(/C=C/C#N)cc(C)c1Oc1nc(NC23CC(C#N)(C2)C3)nc2nc(C3CCCCC3)[nH]c12 [Compound 51, (E)-3-((6-(4-(2-cyanovinyl)-2,6-dimethylphenoxy)-8-cyclohexyl-7H-purin-2-yl)amino)bicyclo[1.1.1]pentane-1-carbonitrile]	374
Cc1cc(/C=C/C#N)cc(C)c1Oc1nc(NC23CC(C#N)(C2)C3)nc2c1C(C)N(c1cnn(C(F)(F)F)c1)C2=O (stereo not shown) [Example 217, (E)-3-((4-(4-(2-cyanovinyl)-2,6-dimethylphenoxy)-5-methyl-7-oxo-6-(1-(trifluoromethyl)-1H-pyrazol-4-yl)-6,7-dihydro-5H-pyrrolo[3,4-d]pyrimidin-2-yl)amino)bicyclo[1.1.1]pentane-1-carbonitrile]	157
COCCn1cc2c(Oc3c(C)cc(/C=C/C#N)cc3C)nc(NC34CC(C#N)(C3)C4)nc2n1 [Compound 123, 3-[[4-[4-[(E)-2-cyanovinyl]-2,6-dimethyl-phenoxy]-2-(2-methoxyethyl)pyrazolo[3,4-d]pyrimidin-6-yl]amino]bicyclo[1.1.1]pentane-1-carbonitrile]	59.8
Cc1cc(/C=C/C#N)cc(C)c1Oc1nc(NC23CC(C#N)(C2)C3)nc2nn3c(c12)COCC3 [Example 259, (E)-3-((4-(4-(2-cyanovinyl)-2,6-dimethylphenoxy)-7,8-dihydro-5H-pyrimido[4′,5′:3,4]pyrazolo[5,1-c][1,4]oxazin-2-yl)amino)bicyclo[1.1.1]pentane-1-carbonitrile]	23.6
Cc1cc(/C=C/C#N)cc(C)c1Oc1nc(NC23CC(C#N)(C2)C3)nc2nn(C)c(I)c12 [Compound 87, (E)-3-((4-(4-(2-cyanovinyl)-2,6-dimethylphenoxy)-3-iodo-2-methyl-2H-pyrazolo[3,4-d]pyrimidin-6-yl)amino)bicyclo[1.1.1]pentane-1-carbonitrile]	25.1
